Results on five molecules are retold here after patent publication US10342796B2, “Acrylanilide derivative, preparation method, and applications thereof in pharmacy” (Ancureall Pharmaceutical (Shanghai) Co., Ltd., priority 2015, dated 2019).

Broadly, the GI50 is the concentration giving 50% growth inhibition.

Holding throughout (experiment): Growth inhibition GI50 in vitro (CCK8/MTT, 72 h)
Common to all, as to format: cell-based, human

For one assay, the system named is SK-BR-3 (Her2 amp). To be noted: Homo sapiens, SK-BR-3; HER2 positive cell line; range of GI50; read-out: GI50 SK-BR-3. The method, then: Human lung adenocarcinoma cell line Calu-3 (ATCC) was cultured with 1×MEM complete medium (10% FBS, 1% double-antibiotics, 1% NEAA (Gibco), 2 mM glutamine and 1 mM of sodium pyruvate). Human breast cancer cell line SK-BR-3 was cultured with McCOY'S5A complete medium (10% FBS). Human colon cancer cell line SNU1040 (HER2 V777M positive) (ATCC) and human bronchoalveolar adenocarcinoma cell line NCI-H1781 (expressing HER2 exon 20 G776VC mutation) (ATCC) were cultured with 1×RPMI1640 complete medium (10% FBS), respectively.
The suspension cells were collected by centrifugation. The supernatant was discard and the cell pellet was resuspended and counted. Different cell concentrations (5˜10×10^4 cells/mL) were prepared according to the growth cycle of each cell line and then seeded on a 96-well plate (Corning), 100 μL/well. The cells were incubated over night at 37° C., 5% CO2. The compounds were added to the cells on the second day with 2 wells in parallel. The final concentration of organic solvent shall not exceed 1%. The cells were continually incubated for 72 h, and then subjected to MTT assay.
The present compounds and the reference compounds were dissolved with DMSO (Sigma), respectively. […] The storage concentration of compounds was 10 mM and kept at −20° C. They were diluted by 2 times or 10 times with serial dilution before using.
Dojindo CCK8 reagent kit was used as MTT assay. […] FC meter was used as microplate reader.
Adherent cell culture medium was discard and immediately replaced with fresh prepared medium which contains 10% CCK8 reagent (100 μL/well). For the suspension cells, CCK8 was directly added to 10% of the final concentration. The cells were continually incubated for 1˜4 h. When the color of control wells turned to dark yellow, the absorption value was measured at OD450 nm. The cell growth rate was calculated according to the following formula: cell growth rate (%)=100*(T−T0)/(C−T0), T=optical density of drug treatment cell well—optical density of blank control well; T0=optical density of cell well before drug treatment—optical density of blank control well; C=optical density of cell well of solvent control group—optical density of blank control well. […] The experiment was independently repeated 1˜3 times, and subject to biological statistical analysis.

Assay [1] relates to A431 (EGFR WT, amplification and high expression). The conditions noted are these: Homo sapiens, A-431; EGFR wild type cell line; range of GI50; read-out: GI50 A431.
The subject of assay [2] is H1299 (EGFR wt, Nras Q61K). To be noted: Homo sapiens, NCI-H1299; EGFR wild type cell line; range of GI50; read-out: GI50 H1299.
Another assay concerns A549 (EGFR WT). The conditions noted are these: Homo sapiens, A549; EGFR wild type cell line; range of GI50; read-out: GI50 A549.
For assay [3], the system named is H460 (EGFR wt, Kras G61H). To be noted: Homo sapiens, NCI-H460; EGFR wild type cell line; range of GI50; read-out: GI50 H460.
In a further assay the test system is AU565 (Her2 amp). The conditions noted are these: Homo sapiens, AU565; HER2 positive cell line; range of GI50; read-out: GI50 AU-565.
The next assay relates to H1975 (EGFR L858R/T790M). To be noted: Homo sapiens, NCI-H1975; EGFR mutant cell line; range of GI50; read-out: GI50 H1975.
Assay [4] deals with PC-9ER (EGFR delE746-A750/T790M). To be noted: Homo sapiens, PC-9/ER; EGFR mutant cell line; range of GI50; read-out: GI50 PC9ER.
The test system of the next assay is PC-9 (EGFR dE746-A750). To be noted: Homo sapiens; EGFR mutant cell line; range of GI50; read-out: GI50 PC-9.
For the next assay, the system named is HCC827 (EGFR dE746-A750). The conditions noted are these: Homo sapiens, HCC827; EGFR mutant cell line; range of GI50; read-out: GI50 HCC827.
Another assay relates to N87 (HER2 Amp). The conditions noted are these: Homo sapiens; HER2 positive cell line; range of GI50; read-out: GI50 N87.

Take `C=CC(=O)Nc1cc(Nc2nccc(-n3ccc4ccc(Br)cc43)n2)c(OC)cc1N(C)CCN(C)C` [Compound 62, N-(5-(4-(6-bromo-1H-indol-1-yl)-pyrimidin-2-ylamino)-2-((2-(dimethylamino)ethyl)-methyl-amino)-4-methoxyl-phenyl)-acrylamide]: the GI50 was 0.01 to 0.1 µM in the assay on SK-BR-3 (Her2 amp); 0.1 to 1 µM in assay [1]; greater than 1 µM in assay [2]; greater than 1 µM in the assay with A549 (EGFR WT); greater than 1 µM in assay [3]; 0.01 to 0.1 µM with AU565 (Her2 amp). Moreover, the GI50 was 0.01 to 0.1 µM in the assay on H1975 (EGFR L858R/T790M); 0.01 to 0.1 µM in assay [4]; 0.01 to 0.1 µM in the assay on PC-9 (EGFR dE746-A750); less than 0.01 µM in the assay with HCC827 (EGFR dE746-A750); 0.01 to 0.1 µM in the assay on N87 (HER2 Amp).
`C=CC(=O)Nc1cc(Nc2nccc(-n3ccc4cc(C)ccc43)n2)c(OC)cc1N(C)CCN(C)C` [Compound 77, N-(5-(4-(5-methyl-1H-indol-1-yl)-pyrimidin-2-ylamino)-2-((2-dimethylamino-ethyl)-methyl-amino)-4-methoxyl-phenyl)-acrylamide]: the GI50 in the assay with SK-BR-3 (Her2 amp) is 0.1 to 1 µM; in assay [1] it was 0.1 to 1 µM; in assay [2] it was greater than 1 µM; in the assay with A549 (EGFR WT), greater than 1 µM; in assay [3], greater than 1 µM; with AU565 (Her2 amp), 0.1 to 1 µM. In addition, the GI50 in the assay with H1975 (EGFR L858R/T790M) fell in the range of 0.01 to 0.1 µM; in [4], 0.01 to 0.1 µM; with PC-9 (EGFR dE746-A750) it was 0.1 to 1 µM; in the assay on HCC827 (EGFR dE746-A750) it was 0.1 to 1 µM; in the assay with N87 (HER2 Amp) it was 0.1 to 1 µM.
On to `C=CC(=O)Nc1cc(Nc2nccc(-n3ccc4cc(OC)ccc43)n2)c(OC)cc1N(C)CCN(C)C` [Compound 78, N-(5-(4-(5-methoxyl-1H-indol-1-yl)-pyrimidin-2-ylamino)-2-((2-dimethylamino-ethyl)-methyl-amino)-4-methoxyl-phenyl)-acrylamide], for which the 50% growth inhibitory concentration (GI50) was 0.01 to 0.1 µM in the assay on SK-BR-3 (Her2 amp); 0.1 to 1 µM in assay [1]; greater than 1 µM in [2]; greater than 1 µM in the assay with A549 (EGFR WT); greater than 1 µM in assay [3]; 0.01 to 0.1 µM with AU565 (Her2 amp). Moreover, the 50% growth inhibitory concentration (GI50) with H1975 (EGFR L858R/T790M) was less than 0.01 µM; in [4], 0.01 to 0.1 µM; in the assay with PC-9 (EGFR dE746-A750), 0.01 to 0.1 µM; in the assay with HCC827 (EGFR dE746-A750) it was 0.01 to 0.1 µM; in the assay on N87 (HER2 Amp), less than 0.01 µM.
As to `C=CC(=O)Nc1cc(Nc2nccc(-n3ccc4cc(F)ccc43)n2)c(OC)cc1N(C)CCN(C)C` [Compound 83], the 50% growth inhibitory concentration (GI50) in the assay on SK-BR-3 (Her2 amp) is 0.1 to 1 µM; in [1], 0.1 to 1 µM; in assay [2], greater than 1 µM; with A549 (EGFR WT), greater than 1 µM; in assay [3], greater than 1 µM; in the assay on AU565 (Her2 amp) it was 0.1 to 1 µM. For the same molecule, the GI50 in the assay with H1975 (EGFR L858R/T790M) was less than 0.01 µM; in [4], 0.01 to 0.1 µM; in the assay on PC-9 (EGFR dE746-A750), 0.01 to 0.1 µM; in the assay with HCC827 (EGFR dE746-A750) it was less than 0.01 µM; in the assay with N87 (HER2 Amp), 0.01 to 0.1 µM.
On to `C=CC(=O)Nc1cc(Nc2nccc(-n3ccc4c(C)cccc43)n2)c(OC)cc1N(C)CCN(C)C` [Compound 98, N-(5-(4-(4-methyl-1H-indol-1-yl)-pyrimidin-2-ylamino)-2-(2-(dimethylamino-ethyl)-methyl-amino)-4-methoxyl-phenyl)-acrylamide], for which the concentration for 50% growth inhibition (GI50) is 0.01 to 0.1 µM in the assay on SK-BR-3 (Her2 amp); 0.1 to 1 µM in [1]; greater than 1 µM in [2]; greater than 1 µM in the assay with A549 (EGFR WT); greater than 1 µM in [3]; 0.1 to 1 µM with AU565 (Her2 amp). Moreover, the GI50 (in the assay with H1975 (EGFR L858R/T790M); in [4]; in the assay with PC-9 (EGFR dE746-A750); with HCC827 (EGFR dE746-A750); with N87 (HER2 Amp)) was 0.01 to 0.1 µM throughout.
